According to patent US20170320870A1 (Medical Research Council Technology, priority 2009, published 2017):

biological target: T1, LRRK2 wild type (recombinant human, catalytic domain amino acids 970-2527, GST-tagged) (Homo sapiens, UniProt Q5S007); assay: LRRK2 wild type protein kinase assay ([γ-33P] ATP, peptide substrate […]), IC50; assay type: biochemical; details: LRRK2 (variant not given); read-out: Potency score, LRRK2 IC50
T1 construct: The wild type used was recombinant human, catalytic domain (amino acids 970-2527) GST-tagged, expressed in insect cells; GST; purchased Invitrogen Corporation PV4873; host or cells: insect cells
Source text: All LRRK2 protein kinases were of human origin and were sourced from Invitrogen Corporation (Carlsbad, Calif. 92008 USA) unless otherwise indicated. The active mutant used was recombinant human, catalytic domain (amino acids 970-2527) containing a G2019S mutation, GST-tagged, expressed in insect cells (Invitrogen Cat#PV4881). The wild type used was recombinant human, catalytic domain (amino acids 970-2527) GST-tagged, expressed in insect cells (Invitrogen Cat#PV4873). The kinase dead mutant used was recombinant human, catalytic domain (amino acids 970-2527) containing a D1994A mutation, GST-tagged, expressed in insect cells (Invitrogen Cat#PM4041AE). No special measures were taken to activate any of the kinases.
All assays were carried out at room temperature (˜21° C.) and were linear with respect to time and enzyme concentration under the conditions used. Assays were performed for 180 min in a 96 well format. LRRK2 was present at a concentration of approximately 5 nM. The enzyme was diluted and assayed in 50 mM Tris-HCl pH7.5, 0.1 mM EGTA, 1 mM DTT and 10 mM MgCl2. The concentration of magnesium chloride in the assay was 10 mM. The [γ-33P] […] The peptide substrate in the assay was […] at 100 μM.
The assays were initiated with Mg/ATP and stopped by the addition of 25 μl/well 50% orthophosphoric acid. Reactions were harvested onto Whatman P81 Unifilter Plates (Fisher Scientific. Loughborough, LE115RG, UK. Cat# FDU-105-020U) using a Tomtec harvester. (Tomtec Hamden, Conn. 06514. USA) Plates were counted using a Perkin Elmer Top Count NX7. (Perkin Elmer, Shelton Conn. 06484-4794 USA)
IC50 values of inhibitors were determined after carrying out assays at 10 different concentrations of each compound in duplicate.

T1 sequence (Q5S007 970-2527): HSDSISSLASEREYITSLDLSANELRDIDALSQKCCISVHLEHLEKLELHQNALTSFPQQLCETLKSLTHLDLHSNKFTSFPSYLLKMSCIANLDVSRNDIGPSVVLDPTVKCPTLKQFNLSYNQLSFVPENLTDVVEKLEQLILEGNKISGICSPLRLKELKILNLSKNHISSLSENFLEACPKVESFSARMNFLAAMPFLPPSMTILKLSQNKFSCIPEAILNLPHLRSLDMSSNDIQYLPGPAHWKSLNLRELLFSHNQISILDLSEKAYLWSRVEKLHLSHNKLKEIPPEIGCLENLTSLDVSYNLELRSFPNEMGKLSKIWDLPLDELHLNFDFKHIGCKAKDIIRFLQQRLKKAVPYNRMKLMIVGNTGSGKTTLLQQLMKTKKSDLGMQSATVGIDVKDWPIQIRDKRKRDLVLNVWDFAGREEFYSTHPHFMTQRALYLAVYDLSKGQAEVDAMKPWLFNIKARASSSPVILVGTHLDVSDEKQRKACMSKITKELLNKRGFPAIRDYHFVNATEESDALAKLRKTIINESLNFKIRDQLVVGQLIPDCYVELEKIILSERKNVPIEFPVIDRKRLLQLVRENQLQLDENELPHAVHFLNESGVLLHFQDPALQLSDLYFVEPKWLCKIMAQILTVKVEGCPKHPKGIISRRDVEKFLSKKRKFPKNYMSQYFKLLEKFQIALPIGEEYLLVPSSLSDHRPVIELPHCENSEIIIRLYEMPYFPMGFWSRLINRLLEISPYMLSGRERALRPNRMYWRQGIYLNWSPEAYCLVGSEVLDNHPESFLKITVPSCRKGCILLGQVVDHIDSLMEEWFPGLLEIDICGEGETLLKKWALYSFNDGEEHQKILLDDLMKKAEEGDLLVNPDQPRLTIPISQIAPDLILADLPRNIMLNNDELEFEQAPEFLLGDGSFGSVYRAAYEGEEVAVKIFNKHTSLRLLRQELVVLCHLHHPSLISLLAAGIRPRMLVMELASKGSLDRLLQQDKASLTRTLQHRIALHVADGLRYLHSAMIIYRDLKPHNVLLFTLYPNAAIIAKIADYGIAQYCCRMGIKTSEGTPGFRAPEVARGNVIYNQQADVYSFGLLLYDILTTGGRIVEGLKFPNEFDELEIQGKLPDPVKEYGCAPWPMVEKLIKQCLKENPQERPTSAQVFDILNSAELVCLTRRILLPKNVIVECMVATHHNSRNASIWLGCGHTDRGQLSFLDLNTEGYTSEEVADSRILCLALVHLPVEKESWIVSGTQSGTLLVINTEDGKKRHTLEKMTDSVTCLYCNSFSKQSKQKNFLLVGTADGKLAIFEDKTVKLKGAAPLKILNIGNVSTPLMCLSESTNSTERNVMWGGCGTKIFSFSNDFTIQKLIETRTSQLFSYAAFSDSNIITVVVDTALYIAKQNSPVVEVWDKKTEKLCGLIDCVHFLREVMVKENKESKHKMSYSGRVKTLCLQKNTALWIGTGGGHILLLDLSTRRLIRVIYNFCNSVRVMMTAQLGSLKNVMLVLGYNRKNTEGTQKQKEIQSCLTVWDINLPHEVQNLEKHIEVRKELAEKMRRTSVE

| IC50 [nM] | SMILES |
| --- | --- |
| 1000 to 10000 | Cc1n[nH]c2ccnc(N(C)C3CCCCC3)c12 [Example 35, Cyclohexyl-methyl-(3-methyl-1H-pyrazolo[4,3-c]pyridin-4-yl)-amine] |
| 1000 to 10000 | Cc1n[nH]c2ccnc(NCc3ccco3)c12 [Example 303, Furan-2-ylmethyl-(3-methyl-1H-pyrazolo[4,3-c]pyridin-4-yl)-amine] |
| 1000 to 10000 | CC(=O)Nc1cccc(Nc2nccc3[nH]nc(C)c23)c1 [Example 78, N-[3-(3-Methyl-1H-pyrazolo[4,3-c]pyridin-4-ylamino)-phenyl]-acetamide] |
| 100 to 1000 | CCC(C)Nc1nccc2[nH]nc(C)c12 (stereo not drawn) [Example 23, sec-Butyl-(3-methyl-1H-pyrazolo[4,3-c]pyridin-4-yl)-amine] |
| 1000 to 10000 | Cc1n[nH]c2ccnc(Cc3ccccc3)c12 [Example 125, 4-Benzyl-3-methyl-1H-pyrazolo[4,3-c]pyridine] |
| 100 to 1000 | Cc1n[nH]c2ccnc(N[C@H](C)C(C)C)c12 [Example 39, ((R)-1,2-Dimethyl-propyl)-(3-methyl-1H-pyrazolo[4,3-c]pyridin-4-yl)-amine] |
| 100 to 1000 | Cc1n[nH]c2ccnc(C3CCCC3)c12 [Example 127, 4-Cyclopentyl-3-methyl-1H-pyrazolo[4,3-c]pyridine] |
| 1000 to 10000 | Cc1n[nH]c2ccnc(NCCC3CCCN3C)c12 (stereo not drawn) [Example 25, (3-Methyl-1H-pyrazolo[4,3-c]pyridin-4-yl)-[2-(1-methyl-pyrrolidin-2-yl)-ethyl]-amine] |
| 100 to 1000 | Cc1n[nH]c2ccnc(Nc3ccn(C)n3)c12 [Example 61, (3-Methyl-1H-pyrazolo[4,3-c]pyridin-4-yl)-(1-methyl-1H-pyrazol-3-yl)-amine] |
| 100 to 1000 | CC(=O)Nc1ccc(Nc2nccc3[nH]nc(C)c23)cc1 [Example 79, N-[4-(3-Methyl-1H-pyrazolo[4,3-c]pyridin-4-ylamino)-phenyl]-acetamide] |
| 1000 to 10000 | Cc1n[nH]c2ccnc(NC3CCN(Cc4ccccc4)CC3)c12 [Example 98, (1-Benzyl-piperidin-4-yl)-(3-methyl-1H-pyrazolo[4,3-c]pyridin-4-yl)-amine] |
| 1000 to 10000 | Cc1n[nH]c2ccnc(Nc3cccc(N(C)C)c3)c12 [Example 92, N,N-Dimethyl-N′-(3-methyl-1H-pyrazolo[4,3-c]pyridin-4-yl)-benzene-1,3-diamine] |
| 100 to 1000 | Oc1nccc2[nH]nc(-c3ccoc3)c12 [Example 167, 3-Furan-3-yl-1H-pyrazolo[4,3-c]pyridin-4-ol] |
| 100 to 1000 | Cc1n[nH]c2ccnc(NCCc3ccc(F)cc3)c12 [Example 334, [2-(4-Fluoro-phenyl)-ethyl]-(3-methyl-1H-pyrazolo[4,3-c]pyridin-4-yl)-amine] |
| 1000 to 10000 | Cc1n[nH]c2ccnc(-c3cccc(F)c3)c12 [Example 51, 4-(3-Fluoro-phenyl)-3-methyl-1H-pyrazolo[4,3-c]pyridine] |
| 1000 to 10000 | Cc1n[nH]c2ccnc(NCCc3ccccn3)c12 [Example 2, (3-Methyl-1H-pyrazolo[4,3-c]pyridin-4-yl)-(2-pyridin-2-yl-ethyl)-amine] |
| 1000 to 10000 | COCCC(=O)N1CCC(Nc2nccc3[nH]nc(C)c23)CC1 [Example 102, 3-Methoxy-1-[4-(3-methyl-1H-pyrazolo[4,3-c]pyridin-4-ylamino)-piperidin-1-yl]-propan-1-one] |
| 1000 to 10000 | COc1ccccc1CCNc1nccc2[nH]nc(C)c12 [Example 339, [2-(2-Methoxy-phenyl)-ethyl]-(3-methyl-1H-pyrazolo[4,3-c]pyridin-4-yl)-amine] |
| 100 to 1000 | Cc1n[nH]c2ccnc(Nc3cc(F)cc(F)c3)c12 [Example 69, (3,5-Difluoro-phenyl)-(3-methyl-1H-pyrazolo[4,3-c]pyridin-4-yl)-amine] |
| 1000 to 10000 | COc1ccccc1CNc1nccc2[nH]nc(C)c12 [Example 336] |
| 100 to 1000 | Cc1n[nH]c2ccnc(NCCCn3ccnc3)c12 [Example 15, (3-Imidazol-1-yl-propyl)-(3-methyl-1H-pyrazolo[4,3-c]pyridin-4-yl)-amine] |
| 1000 to 10000 | Cc1n[nH]c2ccnc(NCCNc3ccccc3)c12 [Example 337, N-(3-Methyl-1H-pyrazolo[4,3-c]pyridin-4-yl)-N′-phenyl-ethane-1,2-diamine] |
| 100 to 1000 | Cc1n[nH]c2ccnc(Nc3cccc(NS(C)(=O)=O)c3)c12 [Example 73, N-[3-(3-Methyl-1H-pyrazolo[4,3-c]pyridin-4-ylamino)-phenyl]-methanesulfonamide] |

Further lines, the compound ahead of its results:

| SMILES | IC50 [nM] |
| --- | --- |
| O=C(CCc1n[nH]c2ccnc(NC3CCCCC3)c12)NCc1cccc(F)c1 [Example 186, 3-(4-Cyclohexylamino-1H-pyrazolo[4,3-c]pyridin-3-yl)-N-(3-fluoro-benzyl)-propionamide] | 1000 to 10000 |
| CC(=O)N1CCC(CCc2n[nH]c3ccnc(NC4CCCCC4)c23)CC1 [Example 219, 1-{4-[2-(4-Cyclohexylamino-1H-pyrazolo[4,3-c]pyridin-3-yl)-ethyl]-piperidin-1-yl}-ethanone] | 1000 to 10000 |
| Cn1cnc(C(=O)Nc2ccc(CCc3n[nH]c4ccnc(NC5CCCCC5)c34)cc2)c1 [Example 269, 1-Methyl-1H-imidazole-4-carboxylic acid {4-[2-(4-cyclohexylamino-1H-pyrazolo[4,3-c]pyridin-3-yl)-ethyl]-phenyl}-amide] | < 100 |
| COCCNC(=O)CCc1n[nH]c2ccnc(NC3CCCCC3)c12 [Example 211, 3-(4-Cyclohexylamino-1H-pyrazolo[4,3-c]pyridin-3-yl)-N-(2-methoxy-ethyl)-propionamide] | 1000 to 10000 |
| Nc1cccc(CCc2n[nH]c3ccnc(NC4CCCCC4)c23)c1 [Example 221, {3-[2-(3-Amino-phenyl)-ethyl]-1H-pyrazolo[4,3-c]pyridin-4-yl}-cyclohexyl-amine] | < 100 |
| CS(=O)(=O)N1CCC(CCc2n[nH]c3ccnc(NC4CCCCC4)c23)CC1 [Example 220, Cyclohexyl-{3-[2-(1-methanesulfonyl-piperidin-4-yl)-ethyl]-1H-pyrazolo[4,3-c]pyridin-4-yl}-amine] | 100 to 1000 |
| CN(C)C(=O)CCc1n[nH]c2ccnc(NC3CCCCC3)c12 [Example 212, 3-(4-Cyclohexylamino-1H-pyrazolo[4,3-c]pyridin-3-yl)-N,N-dimethyl-propionamide] | 100 to 1000 |
| N#Cc1cccc(C(=O)Nc2ccc(CCc3n[nH]c4ccnc(NC5CCCCC5)c34)cc2)c1 [Example 276, 3-Cyano-N-{4-[2-(4-cyclohexylamino-1H-pyrazolo[4,3-c]pyridin-3-yl)-ethyl]-phenyl}-benzamide] | < 100 |
| c1ccc2c(-c3n[nH]c4ccnc(NC5CCCCC5)c34)cncc2c1 [Example 164, Cyclohexyl-(3-isoquinolin-4-yl-1H-pyrazolo[4,3-c]pyridin-4-yl)-amine] | 1000 to 10000 |
| N#Cc1ccc(-c2n[nH]c3ccnc(NC4CCCCC4)c23)cc1 [Example 158] | 1000 to 10000 |
| Cc1n[nH]c2ccnc(OCCC(C)C)c12 [Example 282, 3-Methyl-4-(3-methyl-butoxy)-1H-pyrazolo[4,3-c] pyridine] | 100 to 1000 |
| CN1CCN(C(=O)CCc2n[nH]c3ccnc(NC4CCCCC4)c23)CC1 [Example 177, 3-(4-Cyclohexylamino-1H-pyrazolo[4,3-c]pyridin-3-yl)-1-(4-methyl-piperazin-1-yl)-propan-1-one] | 100 to 1000 |
| c1cc2[nH]ncc2c(NC2CCCCC2)n1 [Example 133, Cyclohexyl-(1H-pyrazolo[4,3-c]pyridin-4-yl)-amine] | 1000 to 10000 |
| Cc1n[nH]c2ccnc(OCC(C)C)c12 [Example 280, 4-Isobutoxy-3-methyl-1H-pyrazolo[4,3-c]pyridine] | < 100 |
| O=C(Nc1ccc(CCc2n[nH]c3ccnc(NC4CCCCC4)c23)cc1)c1ccncc1 [Example 267, N-{4-[2-(4-Cyclohexylamino-1H-pyrazolo[4,3-c]pyridin-3-yl)-ethyl]-phenyl}-isonicotinamide] | < 100 |
| O=C(COc1ccccc1)Nc1ccc(CCc2n[nH]c3ccnc(NC4CCCCC4)c23)cc1 [Example 273, N-{4-[2-(4-Cyclohexylamino-1H-pyrazolo[4,3-c]pyridin-3-yl)-ethyl]-phenyl}-2-phenoxy-acetamide] | < 100 |
| O=C(CCc1n[nH]c2ccnc(NC3CCCCC3)c12)N1CC(c2ccccc2)C1 [Example 242, 3-(4-Cyclohexylamino-1H-pyrazolo[4,3-c]pyridin-3-yl)-1-(3-phenyl-azetidin-1-yl)-propan-1-one] | 100 to 1000 |
| Cc1n[nH]c2ccnc(OC3CCC3)c12 [Example 281, 4-Cyclobutoxy-3-methyl-1H-pyrazolo[4,3-c]pyridine] | 100 to 1000 |
| O=C(CCc1n[nH]c2ccnc(NC3CCCCC3)c12)N1CCC(F)(F)CC1 [Example 168, 3-(4-Cyclohexylamino-1H-pyrazolo[4,3-c]pyridin-3-yl)-1-(4,4-difluoro-piperidin-1-yl)-propan-1-one] | 100 to 1000 |
